In general, pIC50 refers to the IC50 on a negative log10 scale, so that one unit is a factor of ten. For orientation: inhibition means the change of the read-out against control, counted positive when it falls.

SMILES strings stand for the structures. pIC50: −log10 of the molar value. Values joined by “and” are separate entries in the source; they are usually repeats but may differ in a detail not shown here. Identical values can stand only once.

What all share (assay): Kir family selectivity thallium flux assay
Common to all, as to assay type: cell-based

In assay [1] the target is T1, Kir1.1 (Homo sapiens, UniProt P48048).
T1 construct: expressed in transfected cells
T1 sequence (P48048 1-391): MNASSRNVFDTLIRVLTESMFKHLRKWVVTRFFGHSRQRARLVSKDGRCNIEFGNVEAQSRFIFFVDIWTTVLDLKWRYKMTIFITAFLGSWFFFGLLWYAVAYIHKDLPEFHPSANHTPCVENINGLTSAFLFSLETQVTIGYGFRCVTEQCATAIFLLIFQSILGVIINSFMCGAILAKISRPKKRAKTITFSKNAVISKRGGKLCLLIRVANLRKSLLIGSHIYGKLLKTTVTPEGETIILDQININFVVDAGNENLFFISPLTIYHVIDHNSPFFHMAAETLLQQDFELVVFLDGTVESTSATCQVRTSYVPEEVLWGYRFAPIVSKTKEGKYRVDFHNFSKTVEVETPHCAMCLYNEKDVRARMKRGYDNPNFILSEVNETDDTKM
The method, then: (§1) Thallium flux assays were conducted using the established methods. Stably transfected T-REx-HEK-293 cells expressing Kir6.2/SUR1 or Kir6.1/SUR2B were cultured overnight in polyamine-coated plates (black-walled, clear-bottomed; BD, Bedford, MA) at a density of 20,000 cells in 20 µl per well of cell culture media. The expression of Kir6.2/SUR1 or Kir6.1/SUR2B channels was induced by treating cells with 1 µg/ml tetracycline overnight. The following day, cells were rinsed with an assay buffer (Hanks’ Balanced Salt Solution supplied with 20 mM HEPES), loaded with the thallium-sensor dye Brilliant Thallos-AM AM (Ion Bioscience, San Marcos, TX) for 1 h, and then washed again with assay buffer to remove unincorporated dye. The cell plate was subsequently placed in a Panoptic Kinetic Imaging Plate Reader (Wavefront Bioscience, Franklin, TN) and imaged at a frequency of 1 Hz using 482/35 nm (excitation) and 536/40 nm (emission) filter sets. Kir6.1/SUR2B channels were activated with 10 µM pinacidil, whereas Kir6.1/SUR1 was activated with 30 µM VU0071063 [34]. To activate KATP channels independent of activators with ATP-depletion method, cells were treated with a cocktail of metabolic inhibitors (2.5 mM sodium cyanide and 20 mM 2-deoxy glucose) for 25 min before imagine. Control and test compounds diluted freshly from DMSO stocks into assay buffer were added to wells for four minutes before adding 0.5 mM chloride-free thallium stimulus buffer (Ion Bioscience) to initiate thallium flux through the expressed KATP channels. Thallium flux was recorded from all 384-wells for 2 min before terminating the experiment. […] Selectivity assays against other Kir channels were performed as described previously.
(§2) To begin elucidating the binding site location of VU0212387, VU0543336, VU0605768, and VU0544086, we evaluated the activity of the inhibitors against KATP channels composed of different Kir and SUR subunit combinations expressed in HEK293 cells. Specifically, the compounds were tested against Kir6.1/SUR1, Kir6.2/SUR1, Kir6.1/SUR2A, Kir6.2/SUR2A, Kir6.1/SUR2B, and Kir6.2/SUR2B at a dose of 3 µM. […] We expanded the selectivity analysis to include 10 other members of the Kir channel family.

The target in assay [2] is T2, Kir4.1/5.1 (Homo sapiens, UniProt P78508+Q9NPI9).
T2 construct: expressed in transfected cells
T2 sequence (P78508 1-379): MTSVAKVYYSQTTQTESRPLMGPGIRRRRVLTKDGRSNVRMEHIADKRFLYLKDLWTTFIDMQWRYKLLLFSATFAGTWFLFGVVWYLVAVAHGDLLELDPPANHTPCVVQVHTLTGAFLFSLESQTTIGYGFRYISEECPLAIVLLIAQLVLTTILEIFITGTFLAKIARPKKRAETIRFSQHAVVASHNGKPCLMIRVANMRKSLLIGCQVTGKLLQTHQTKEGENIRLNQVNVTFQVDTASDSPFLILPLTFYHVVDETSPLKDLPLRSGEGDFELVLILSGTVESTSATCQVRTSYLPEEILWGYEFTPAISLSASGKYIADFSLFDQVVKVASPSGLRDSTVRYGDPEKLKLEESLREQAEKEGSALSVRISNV
T2 sequence (Q9NPI9 1-418): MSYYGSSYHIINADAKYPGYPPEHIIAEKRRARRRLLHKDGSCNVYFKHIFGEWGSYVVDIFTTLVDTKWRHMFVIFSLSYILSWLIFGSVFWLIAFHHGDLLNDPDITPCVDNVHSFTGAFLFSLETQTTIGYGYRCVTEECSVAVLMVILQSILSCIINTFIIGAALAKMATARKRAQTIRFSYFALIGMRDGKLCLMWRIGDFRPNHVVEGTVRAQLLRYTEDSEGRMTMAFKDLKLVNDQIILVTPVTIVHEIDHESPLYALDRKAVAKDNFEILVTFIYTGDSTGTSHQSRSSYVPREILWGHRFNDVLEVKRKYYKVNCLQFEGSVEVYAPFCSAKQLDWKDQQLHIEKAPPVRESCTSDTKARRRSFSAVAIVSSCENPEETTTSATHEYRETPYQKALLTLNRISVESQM
As to the method:
as §1, §2

The target in assay [3] is T3, Kir7.1 (M125R) (Homo sapiens, UniProt O60928, M125R).
T3 construct: expressed in transfected cells
T3 sequence (O60928 1-360 M125R): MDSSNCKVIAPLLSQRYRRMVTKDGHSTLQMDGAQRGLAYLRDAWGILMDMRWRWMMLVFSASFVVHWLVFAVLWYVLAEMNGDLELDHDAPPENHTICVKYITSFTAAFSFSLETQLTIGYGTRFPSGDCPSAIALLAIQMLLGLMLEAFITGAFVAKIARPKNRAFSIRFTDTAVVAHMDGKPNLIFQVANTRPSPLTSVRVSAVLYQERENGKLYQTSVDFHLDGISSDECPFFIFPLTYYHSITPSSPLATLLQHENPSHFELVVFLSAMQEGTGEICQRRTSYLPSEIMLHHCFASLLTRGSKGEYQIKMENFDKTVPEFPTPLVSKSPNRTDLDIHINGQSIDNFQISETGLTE
Particulars: for pIC50: thallium flux. The method, then:
as §1, §2

Consider `c1ccc2[nH]c(CSc3ncnc4c3oc3ccccc34)nc2c1` [VU0212387, 4-(((1 H-benzo[d]imidazol-2-yl)methyl)thio)benzofuro[3,2-d]pyrimidine], for which the pIC50 in assay [1] is under 4.52; in assay [2] it was under 4.52; in assay [3] it was 4.92 and 4.91. For the same compound, the inhibition at 30 µM in assay [3] (observed at 30 µM, read-out: Percent maximal inhibition of Kir7.1 (M125R)) worked out at 69%.

Regarding `O=C(NCC(O)(c1ccccc1)C(F)(F)F)c1ccc(OC(F)(F)F)cc1` (stereo not shown) [VU0543336, N-(3,3,3-trifluoro-2-hydroxy-2-phenylpropyl)-4-(trifluoromethoxy)benzamide], the negative-log IC50 (pIC50) in assay [1], in assay [2] and in assay [3] was under 4.52 in each case.

Turning to `O=C(NCc1cc(-c2ccncc2)n(C2CCCC2)n1)Nc1cccs1` [VU0544086, 1-((1-cyclopentyl-5-(pyridin-4-yl)-1 H-pyrazol-3-yl)methyl)-3-(thiophen-2-yl)urea], the pIC50 in assay [1], in assay [2] and in assay [3] was under 4.52 in each case.

For the compound `O=C1c2oc3ccccc3c(=O)c2C(c2cccc(Br)c2)N1CCO` (stereo not shown) [VU0605768, 1-(3-bromophenyl)-2-(2-hydroxyethyl)-1,2-dihydrochromeno[2,3-c]pyrrole-3,9-dione], the pIC50 in assay [1], in assay [2] and in assay [3] was under 4.52 each time.

(Values after PMC11418212, “Characterization of four structurally diverse inhibitors of SUR2-containing KATP channels” (Channels, 2024).)
